{
  "source": "patent US20090042238A1",
  "about": "“Method of evaluating cell function, system for evaluating cell function, fluorescent microscope system, phototherapy method and phototherapy system” (NIKON CORPORATION, priority 2006, published 2009)",
  "tested_on": "mitochondria in living cells",
  "test": "evaluation of cell function (phototoxic property) with confocal fluorescence microscope system",
  "assay_type": "cell-based",
  "from_the_text": "The following describes an example of the evaluation of cell function according to the present invention, performed with the confocal fluorescence microscope system of the First Embodiment.\nRH123, used as a fluorescent dye, was applied to the mitochondria in living cells to prepare a specimen. The specimen was two-dimensionally scanned by irradiating an argon laser (488 nm) emitted in a predetermined intensity from the excitation light source 11, so as to obtain a fluorescence image of one frame.\nFIG. 8(A) is the actual first fluorescence image obtained. Predetermined positions of the mitochondria (stained area) and the cellular cytoplasm (reference point) were specified by rectangular shaped frames, and a mean value of brightness values of the pixels in each of these specific areas was determined. These mean values were used as the brightness value of the mitochondria, and the brightness value of the cellular cytoplasm, respectively.\nThis procedure of obtaining the fluorescence image was repeated under the same conditions, and the brightness values of the mitochondria and the cellular cytoplasm were measured. FIG. 8(B) is the actual 50th fluorescence image, and FIG. 8(C) is the actual 150th fluorescence image obtained. It can be seen from FIG. 8 that the fluorescence image indeed undergoes changes as described in the First Embodiment with reference to FIG. 2.",
  "data": [
    {"substance": "Rhodamin 123 [RH123]", "values": [
      {"measurement": "frame number in which the brightness value of the cellular cytoplasm has the peak (functional depression of the mitochondria complete)", "setting": "argon laser (488 nm) of a predetermined intensity, repeated imaging, FIG. 9(A)", "value": 50},
      {"measurement": "frame number in which the brightness value of the cellular cytoplasm has the peak", "setting": "laser beam having a weaker intensity than in FIG. 9(A), otherwise same conditions, FIG. 9(B)", "value": 70}
    ]}
  ]
}
